From US9890133B2 (priority 2011, dated 2018)
Values after ≈ are worked out from the molar mass of the structure shown.

Experiment: in vitro
Settings: human

| SMILES | CC50 [µg/mL] | CC50 (Picorana CC50) [µg/mL] |
| --- | --- | --- |
| CCCCC(=O)NC12C(=O)c3c(N)cccc3C1(O)Oc1cc(C(C)C)ccc12 (centres unmarked) [Example 78, Pentanoic acid (1-amino-4b-hydroxy-7-isopropyl-10-oxo-4b,10-dihydro-5-oxa-indeno[2,1-a]inden-9b-yl)-amide] | 20.6 (≈ 52.3 µM) | 47.7 (≈ 121 µM) |
| CC(C)c1ccc2c(c1)OC1(O)c3ccccc3C(=O)C21NC(=O)c1cc(-c2ccccc2)n[nH]1 (centres unmarked) [Example 229, N-(4b-hydroxy-7-isopropyl-10-oxo-9b,10-dihydro-4bH-indeno[1,2-b]benzofuran-9b-yl)-3-phenyl-1H-pyrazole-5-carboxamide] | 4.51 (≈ 9.69 µM) | 8.63 (≈ 18.5 µM) |
| CNC(=O)N[C@@]12C(=O)c3ccccc3[C@]1(O)Oc1cc(C(C)C)ccc12 [Example 101, 1-((4bS,9bS)-4b-Hydroxy-7-isopropyl-10-oxo-9b,10-dihydro-4bH-indeno[1,2-b]benzofuran-9b-yl)-3-methylurea] |  | > 50 |
| CC(C)c1ccc2c(c1)OC1(O)c3ccccc3C(=O)C21NC(=O)c1cnnc2ccccc12 (centres unmarked) [Example 239, N-(4b-hydroxy-7-isopropyl-10-oxo-9b,10-dihydro-4bH-benzo[d]indeno[1,2-b]furan-9b-yl)cinnoline-4-carboxamide] | > 10 | > 50 |
| COc1c(C(=O)NC23C(=O)c4c(N)cccc4C2(O)Oc2cc(C(C)C)ccc23)cnc2ccc(F)cc12 (centres unmarked) [Example 267, N-(1-Amino-4b-hydroxy-7-isopropyl-10-oxo-9b,10-dihydro-4bH-indeno[1,2-b]benzofuran-9b-yl)-6-fluoro-4-methoxyquinoline-3-carboxamide] | 0.86 (≈ 1.67 µM) | 0.87 (≈ 1.69 µM) |
| Cc1c(C(=O)NC23C(=O)c4c(N)cccc4C2(O)Oc2cc(C(C)C)ccc23)cnc2ccnn12 (centres unmarked) [Example 289, N-(1-Amino-4b-hydroxy-7-isopropyl-10-oxo-9b,10-dihydro-4bH-indeno[1,2-b]benzofuran-9b-yl)-7-methylpyrazolo[1,5-a]pyrimidine-6-carboxamide] | > 10 |  |
| CC(C)c1ccc2c(c1)OC1(O)c3cccc(N)c3C(=O)C21NC(=O)c1ccc2nccnc2c1 (centres unmarked) [Example 277, N-(1-Amino-4b-hydroxy-7-isopropyl-10-oxo-9b,10-dihydro-4bH-indeno[1,2-b]benzofuran-9b-yl)quinoxaline-6-carboxamide] | > 10 |  |
| CC(C)c1ccc2c(c1)OC1(O)c3ccc(N4CCC(O)CC4)cc3C(=O)C21O (centres unmarked) [Example 146, 4b,9b-Dihydroxy-7-isopropyl-2-(hydroxypiperidinyl)-4bH-benzo[d]indeno[1,2-b]furan-10(9bH)-one] |  | 1.53 (≈ 3.87 µM) |
| Cc1ccc2c(Cl)c(C(=O)NC34C(=O)c5c(N)cccc5C3(O)Oc3cc(C(C)C)ccc34)sc2c1 (centres unmarked) [Example 270, N-(1-Amino-4b-hydroxy-7-isopropyl-10-oxo-9b,10-dihydro-4bH-indeno[1,2-b]benzofuran-9b-yl)-3-chloro-6-methylbenzo[b]thiophene-2-carboxamide] | 5.93 (≈ 11.4 µM) | 6.57 (≈ 12.7 µM) |
| Cc1cc(C)n2ncc(C(=O)NC34C(=O)c5c(N)cccc5C3(O)Oc3cc(C(C)C)ccc34)c2n1 (centres unmarked) [Example 282, N-(1-Amino-4b-hydroxy-7-isopropyl-10-oxo-9b,10-dihydro-4bH-indeno[1,2-b]benzofuran-9b-yl)-5,7-dimethylpyrazolo[1,5-a]pyrimidine-3-carboxamide] | > 10 | 6.78 (≈ 14 µM) |
| COc1ccc(NC(=O)NC23C(=O)c4c(N)cccc4C2(O)Oc2cc(C(C)C)ccc23)cc1 (centres unmarked) [Example 162] | > 10 |  |
| COc1cc2c(cc1OC)C1(O)C(=O)c3ccccc3C1(O)N2C(=O)C(C)C (centres unmarked) [Example 138, 4b,9b-Dihydroxy-5-isobutyryl-7,8-dimethoxy-5,9b-dihydro-4bH-indeno[1,2-b]indol-10-one] |  | 38.8 (≈ 101 µM) |
| CC(C)c1ccc2c(c1)OC1(O)c3ccccc3C(=O)C21NC(=O)c1cnn(-c2ccccc2)c1C(F)(F)F (centres unmarked) [Example 211] | > 10 |  |
| CC(C)c1ccc2c(c1)OC1(O)c3ccccc3C(=O)C21NC(=O)c1cc2ccccc2oc1=O (centres unmarked) [Example 225, N-(4b-hydroxy-7-isopropyl-10-oxo-9b,10-dihydro-4bH-benzo[d]indeno[1,2-b]furan-9b-yl)-2-oxo-2H-chromene-3-carboxamide] | > 10 | 22.9 (≈ 48.9 µM) |
| CC(C)c1ccc2c(c1)OC1(O)c3ccccc3C(=O)C21NC(=O)c1cc2ccccc2[nH]1 (centres unmarked) [Example 208, N-(4b-hydroxy-7-isopropyl-10-oxo-9b,10-dihydro-4bH-indeno[1,2-b]benzofuran-9b-yl)-1H-indole-2-carboxamide] | > 10 |  |
| CCCC(=O)NC12C(=O)c3ccccc3C1(OC(=O)CCC)Oc1cc(C(C)C)ccc12 (centres unmarked) [Example 89, Butyric acid 9b-butyrylamino-7-isopropyl-10-oxo-9b,10-dihydro-5-oxa-indeno[2,1-a]inden-4b-yl ester] |  | > 50 |
| CC(C)c1ccc2c(c1)OC1(O)c3ccccc3C(=O)C21NC(=O)c1nc[nH]n1 (centres unmarked) [Example 222, N-(4b-Hydroxy-7-isopropyl-10-oxo-9b,10-dihydro-4bH-benzo[d]indeno[1,2-b]furan-9b-yl)-1H-1,2,4-triazole-3-carboxamide] | > 10 | 39.4 (≈ 101 µM) |
| CC(C)c1ccc2c(c1)OC1(O)c3cccc(N4CCOCC4)c3C(=O)C21O (centres unmarked) [Example 142, 4b,9b-Dihydroxy-7-isopropyl-1-morpholinyl-4bH-benzo[d]indeno[1,2-b]furan-10(9bH)-one] |  | 18.7 (≈ 49 µM) |
| CCNC(=O)NC12C(=O)c3c(N)cccc3C1(O)Oc1cc(C(C)C)ccc12 (centres unmarked) [Example 173] | > 10 |  |

| SMILES | CC50 [µg/mL] | CC50 (Picorana CC50) [µg/mL] |
| --- | --- | --- |
| CC(C)c1ccc2c(c1)OC1(O)c3ccc(N(C)C)cc3C(=O)C21O (centres unmarked) [Example 150, 2-(Dimethylamino)-4b,9b-dihydroxy-7-isopropyl-4bH-benzo[d]indeno[1,2-b]-furan-10(9bH)-one] |  | 1.32 (≈ 3.89 µM) |
| CC(C)c1ccc2c(c1)OC1(O)c3ccccc3C(C)C21O (centres unmarked) [Example 136, 7-Isopropyl-10-methyl-9b,10-dihydro-4bH-indeno[1,2-b]benzofuran-4b,9b-diol] |  | 7.8 (≈ 26.3 µM) |
| CC(=O)NC12C(=O)c3ccccc3C1(OC(=O)C(C)(C)C)Oc1cc(C(C)C)ccc12 (centres unmarked) [Example 117, 9b-Acetamido-7-isopropyl-10-oxo-9b,10-dihydro-4bH-benzo[d]indeno[1,2-b]furan-4b-yl pivalate] |  | > 50 |
| CC(C)c1ccc2c(c1)OC1(O)c3ccccc3C(=O)C21NC(=O)c1cc(=O)[nH]c(=O)[nH]1 (centres unmarked) [Example 224, N-(4b-Hydroxy-7-isopropyl-10-oxo-9b,10-dihydro-4bH-benzo[d]indeno[1,2-b]furan-9b-yl)-2,6-dioxo-1,2,3,6-tetrahydropyrimidine-4-carboxamide] | > 10 | > 50 |
| CCCCc1cn(C23C(=O)c4c(N)cccc4C2(O)Oc2cc(C(C)C)ccc23)nn1 (centres unmarked) [Example 196, 1-amino-9b-(4-butyl-1H-1,2,3-triazol-1-yl)-4b-hydroxy-7-isopropyl-4bH-indeno[1,2-b]benzofuran-10(9bH)-one] | 16.2 (≈ 38.7 µM) | 48.5 (≈ 116 µM) |
| CC(C)c1ccc2c(c1)OC1(OCc3ccccc3)c3ccccc3C(=O)C21O (centres unmarked) [Example 120, 4b-(Benzyloxy)-9b-hydroxy-7-isopropyl-4bH-indeno[1,2-b]benzofuran-10(9bH)-one] |  | 8.16 (≈ 21.1 µM) |
| CC(C)c1ccc2c(c1)OC1(O)c3cccc(N(C)C)c3C(=O)C21O (centres unmarked) [Example 151, 1-(Dimethylamino)-4b,9b-dihydroxy-7-isopropyl-4bH-benzo[d]indeno[1,2-b]-furan-10(9bH)-one] |  | 1.52 (≈ 4.48 µM) |
| CO/N=C1/c2ccccc2C2(O)Oc3cc(C(C)C)ccc3C12O (centres unmarked) [Example 88, 4b,9b-Dihydroxy-7-isopropyl-4bH-indeno[1,2-b]benzofuran-10(9bH)-one O-methyl oxime] |  | 8.16 (≈ 25.1 µM) |
| CC(C)c1cc(C(C)C)c2c(c1)C1(N)C(=O)c3ccccc3C1(O)O2 (centres unmarked) [Example 68, 9b-Amino-4b-hydroxy-6,8-diisopropyl-4b,9b-dihydro-5-oxa-indeno[2,1-a]inden-10-one] |  | 8.94 (≈ 26.5 µM) |
| CC(C)c1ccc2c(c1)OC1(O)c3ccccc3C(=O)C21NC(=O)c1ccncn1 (centres unmarked) [Example 219, N-(4b-Hydroxy-7-isopropyl-10-oxo-9b,10-dihydro-4bH-indeno[1,2-b]benzofuran-9b-yl)pyrimidine-4-carboxamide] | > 10 | 45.1 (≈ 112 µM) |
| CCC(=O)NC12Oc3cc(C(C)C)ccc3C1(NC(=O)CC)C(=O)c1ccccc12 (centres unmarked) [Example 124] |  | > 50 |
| CCCCCC(=O)NC12C(=O)c3c(N)cccc3C1(OC(=O)CCCCC)Oc1cc(C(C)C)ccc12 (centres unmarked) [Example 97, 1-amino-9b-hexanamido-7-isopropyl-10-oxo-9b,10-dihydro-4bH-benzo[d]indeno[1,2-b]furan-4b-yl hexanoate] | 8.8 (≈ 17.4 µM) | > 50 |
| CC(C)c1ccc2c(c1)OC1(O)c3ccccc3C(=O)C21NC=O (centres unmarked) [Example 177, N-(4b-hydroxy-7-isopropyl-10-oxo-9b,10-dihydro-4bH-indeno[1,2-b]benzofuran-9b-yl)formamide] | > 10 |  |
| CC(C)c1ccc2c(c1)OC1(O)c3cccc(N)c3C(=O)C21NS(C)(=O)=O (centres unmarked) [Example 168, N-(1-Amino-4b-hydroxy-7-isopropyl-10-oxo-9b,10-dihydro-4bH-benzo[d]indeno[1,2-b]furan-9b-yl)methanesulfonamide] | > 10 |  |
| CC(C)c1cc(C(C)C)c2c(c1)C1(O)C(=O)c3ccccc3C1(O)O2 (centres unmarked) [Example 64, 4b,9b-Dihydroxy-6,8-diisopropyl-4b,9b-dihydro-5-oxa-indeno[2,1-a]inden-10-one] |  | 8.13 (≈ 24 µM) |
| CC(C)c1ccc2c(c1)OC1(O)c3cccc(N)c3C(=O)C21NC(=O)Cc1ccc(-c2ccccc2)cc1 (centres unmarked) [Example 182, 2-([1,1′-Biphenyl]-4-yl)-N-(1-amino-4b-hydroxy-7-isopropyl-10-oxo-9b,10-dihydro-4bH-indeno[1,2-b]benzofuran-9b-yl)acetamide] | 5.85 (≈ 11.6 µM) | 6.42 (≈ 12.7 µM) |
| CO[C@@]12C(=O)c3ccccc3[C@]1(O)Oc1cc(C(C)C)ccc12 [Example 98, (4bS,9bS)-4b-Hydroxy-7-isopropyl-9b-methoxy-4bH-indeno[1,2-b]benzofuran-10(9bH)-one] |  | 7.8 (≈ 25.1 µM) |
| COC(=O)OC12Oc3cc(C(C)C)ccc3C1(NC(C)=O)C(=O)c1ccccc12 (centres unmarked) [Example 111, 9b-Acetamido-7-isopropyl-10-oxo-9b,10-dihydro-4bH-indeno[1,2-b]benzofuran-4b-yl methyl carbonate] |  | 43.6 (≈ 110 µM) |
